Assay results reported in the supplement of paper PMC10307832.

What was measured:
Assay in all cases: relative viability (nuclei count vs DMSO), 5 days (fraction); higher = more cells survive
H3255 = system: H3255
How it was run: (§1)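 Lung cancer cell lines in 1536-well plates got either a single drug or a fixed anchor-drug dose together with five library-drug doses (not always all listed) in √10 steps, by pin tool, on the day after seeding. Nuclei were counted after 5 days, and relative viability is the treated-to-vehicle ratio of nuclei counts. Values are medians of duplicate plates.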

NCI-H1793 = system: NCI-H1793
How it was run: as §1

NCI-H441 = system: NCI-H441
How it was run: as §1

201T = system: 201T
How it was run: as §1

NCI-H1734 = system: NCI-H1734
How it was run: as §1

NCI-H1563 = system: NCI-H1563
How it was run: as §1

NCI-H2405 = system: NCI-H2405
How it was run: as §1

PC-14 = system: PC-14
How it was run: as §1

NCI-H322M = system: NCI-H322M
How it was run: as §1

LOU-NH91 = system: LOU-NH91
How it was run: as §1

EPLC-272H = system: EPLC-272H
How it was run: as §1

NCI-H647 = system: NCI-H647
How it was run: as §1

UMC-11 = system: UMC-11
How it was run: as §1

SW 900 = system: SW 900
How it was run: as §1

HCC-15 = system: HCC-15
How it was run: as §1

NCI-H2023 = system: NCI-H2023
How it was run: as §1

NCI-H520 = system: NCI-H520
How it was run: as §1

COR-L23 = system: COR-L23
How it was run: as §1

NCI-H3122 = system: NCI-H3122
How it was run: as §1

NCI-H2347 = system: NCI-H2347
How it was run: as §1

NCI-H1650 = system: NCI-H1650
How it was run: as §1

NCI-H2170 = system: NCI-H2170
How it was run: as §1

O=c1cc(-c2cccc3c2Sc2ccccc2S3)oc(N2CCOCC2)c1 + COc1cccc2cc(-c3nc([C@H]4CC[C@H](C(=O)O)CC4)n4ncnc(N)c34)[nH]c12 [OSI-027] (partner 0.5 µM)
relative viability (H3255; first compound 0.08 µM): 0.61 | relative viability (H3255; first compound 0.253 µM): 0.604 | relative viability (H3255; first compound 0.8 µM): 0.541 | relative viability (H3255; first compound 2.53 µM): 0.569 | relative viability (H3255; first compound 8 µM): 0.671 | relative viability (NCI-H1793; first compound 0.08 µM): 0.227 | relative viability (NCI-H1793; first compound 0.253 µM): 0.29 | relative viability (NCI-H1793; first compound 0.8 µM): 0.248 | relative viability (NCI-H1793; first compound 2.53 µM): 0.227 | relative viability (NCI-H1793; first compound 8 µM): 0.267 | relative viability (NCI-H441; first compound 0.08 µM): 0.5 | relative viability (NCI-H441; first compound 0.253 µM): 0.813 | relative viability (NCI-H441; first compound 0.8 µM): 0.671 | relative viability (NCI-H441; first compound 2.53 µM): 0.645 | relative viability (NCI-H441; first compound 8 µM): 0.761 | relative viability (201T; first compound 0.08 µM): 0.876 | relative viability (201T; first compound 0.8 µM): 0.591 | relative viability (201T; first compound 2.53 µM): 0.695 | relative viability (201T; first compound 8 µM): 0.734 | relative viability (NCI-H1734; first compound 0.08 µM): 0.556 | relative viability (NCI-H1734; first compound 0.253 µM): 0.613 | relative viability (NCI-H1734; first compound 0.8 µM): 0.611 | relative viability (NCI-H1734; first compound 8 µM): 0.61 | relative viability (NCI-H1563; first compound 0.08 µM): 0.728 | relative viability (NCI-H1563; first compound 0.253 µM): 0.756 | relative viability (NCI-H1563; first compound 0.8 µM): 0.77 | relative viability (NCI-H1563; first compound 2.53 µM): 0.717 | relative viability (NCI-H1563; first compound 8 µM): 0.676 | relative viability (NCI-H2405; first compound 0.08 µM): 0.604 | relative viability (NCI-H2405; first compound 0.253 µM): 0.647 | relative viability (NCI-H2405; first compound 0.8 µM): 0.61 | relative viability (NCI-H2405; first compound 2.53 µM): 0.61 | relative viability (NCI-H2405; first compound 8 µM): 0.618 | relative viability (PC-14; first compound 0.08 µM): 0.884 | relative viability (PC-14; first compound 0.253 µM): 1.07 | relative viability (PC-14; first compound 0.8 µM): 0.714 | relative viability (PC-14; first compound 2.53 µM): 0.772 | relative viability (PC-14; first compound 8 µM): 1.02 | relative viability (NCI-H322M; first compound 0.08 µM): 0.524 | relative viability (NCI-H322M; first compound 0.253 µM): 0.588 | relative viability (NCI-H322M; first compound 0.8 µM): 0.618 | relative viability (NCI-H322M; first compound 2.53 µM): 0.44 | relative viability (NCI-H322M; first compound 8 µM): 0.543 | relative viability (LOU-NH91; first compound 0.08 µM): 0.687 | relative viability (LOU-NH91; first compound 0.253 µM): 0.736 | relative viability (LOU-NH91; first compound 0.8 µM): 0.594 | relative viability (LOU-NH91; first compound 2.53 µM): 0.628 | relative viability (LOU-NH91; first compound 8 µM): 0.758 | relative viability (EPLC-272H; first compound 0.08 µM): 0.254 | relative viability (EPLC-272H; first compound 0.253 µM): 0.279 | relative viability (EPLC-272H; first compound 0.8 µM): 0.254 | relative viability (EPLC-272H; first compound 2.53 µM): 0.251 | relative viability (EPLC-272H; first compound 8 µM): 0.278 | relative viability (NCI-H647; first compound 0.08 µM): 0.636 | relative viability (NCI-H647; first compound 0.253 µM): 0.813 | relative viability (NCI-H647; first compound 0.8 µM): 0.588 | relative viability (NCI-H647; first compound 2.53 µM): 0.513 | relative viability (NCI-H647; first compound 8 µM): 0.623 | relative viability (UMC-11; first compound 0.08 µM): 0.546 | relative viability (UMC-11; first compound 0.253 µM): 0.562 | relative viability (UMC-11; first compound 0.8 µM): 0.457 | relative viability (UMC-11; first compound 2.53 µM): 0.429 | relative viability (UMC-11; first compound 8 µM): 0.514 | relative viability (SW 900; first compound 0.08 µM): 0.573 | relative viability (SW 900; first compound 0.253 µM): 0.697 | relative viability (SW 900; first compound 0.8 µM): 0.459 | relative viability (SW 900; first compound 2.53 µM): 0.494 | relative viability (SW 900; first compound 8 µM): 0.596 | relative viability (HCC-15; first compound 0.08 µM): 0.633 | relative viability (HCC-15; first compound 0.253 µM): 0.765 | relative viability (HCC-15; first compound 0.8 µM): 0.733 | relative viability (HCC-15; first compound 2.53 µM): 0.634 | relative viability (HCC-15; first compound 8 µM): 0.611 | relative viability (NCI-H2023; first compound 0.08 µM): 0.353 | relative viability (NCI-H2023; first compound 0.253 µM): 0.379 | relative viability (NCI-H2023; first compound 0.8 µM): 0.396 | relative viability (NCI-H2023; first compound 2.53 µM): 0.315 | relative viability (NCI-H2023; first compound 8 µM): 0.256 | relative viability (NCI-H520; first compound 0.08 µM): 0.297 | relative viability (NCI-H520; first compound 0.253 µM): 0.257 | relative viability (NCI-H520; first compound 0.8 µM): 0.297 | relative viability (NCI-H520; first compound 2.53 µM): 0.216 | relative viability (NCI-H520; first compound 8 µM): 0.296 | relative viability (COR-L23; first compound 0.08 µM): 0.8 | relative viability (COR-L23; first compound 0.253 µM): 1.21 | relative viability (COR-L23; first compound 0.8 µM): 0.892 | relative viability (COR-L23; first compound 2.53 µM): 0.801 | relative viability (COR-L23; first compound 8 µM): 1 | relative viability (NCI-H3122; first compound 0.08 µM): 1.25 | relative viability (NCI-H3122; first compound 0.253 µM): 1.08 | relative viability (NCI-H3122; first compound 0.8 µM): 0.957 | relative viability (NCI-H3122; first compound 2.53 µM): 1.03 | relative viability (NCI-H3122; first compound 8 µM): 1.08 | relative viability (NCI-H2347; first compound 0.08 µM): 0.421 | relative viability (NCI-H2347; first compound 0.253 µM): 0.454 | relative viability (NCI-H2347; first compound 0.8 µM): 0.297 | relative viability (NCI-H2347; first compound 2.53 µM): 0.431 | relative viability (NCI-H2347; first compound 8 µM): 0.297 | relative viability (NCI-H1650; first compound 0.08 µM): 0.615 | relative viability (NCI-H1650; first compound 0.253 µM): 0.593 | relative viability (NCI-H1650; first compound 0.8 µM): 0.506 | relative viability (NCI-H1650; first compound 2.53 µM): 0.521 | relative viability (NCI-H1650; first compound 8 µM): 0.561 | relative viability (NCI-H2170; first compound 0.08 µM): 0.78 | relative viability (NCI-H2170; first compound 0.253 µM): 0.801 | relative viability (NCI-H2170; first compound 0.8 µM): 0.727 | relative viability (NCI-H2170; first compound 2.53 µM): 0.508 | relative viability (NCI-H2170; first compound 8 µM): 0.717
